The record followed here is US20170037028A1 (BAYER PHARMA AKTIENGESELLSCHAFT, priority 2013, published 2017).

In the first experiment the target is T1, GLUT1 (Homo sapiens, UniProt P11166).
T1 sequence (P11166 1-492): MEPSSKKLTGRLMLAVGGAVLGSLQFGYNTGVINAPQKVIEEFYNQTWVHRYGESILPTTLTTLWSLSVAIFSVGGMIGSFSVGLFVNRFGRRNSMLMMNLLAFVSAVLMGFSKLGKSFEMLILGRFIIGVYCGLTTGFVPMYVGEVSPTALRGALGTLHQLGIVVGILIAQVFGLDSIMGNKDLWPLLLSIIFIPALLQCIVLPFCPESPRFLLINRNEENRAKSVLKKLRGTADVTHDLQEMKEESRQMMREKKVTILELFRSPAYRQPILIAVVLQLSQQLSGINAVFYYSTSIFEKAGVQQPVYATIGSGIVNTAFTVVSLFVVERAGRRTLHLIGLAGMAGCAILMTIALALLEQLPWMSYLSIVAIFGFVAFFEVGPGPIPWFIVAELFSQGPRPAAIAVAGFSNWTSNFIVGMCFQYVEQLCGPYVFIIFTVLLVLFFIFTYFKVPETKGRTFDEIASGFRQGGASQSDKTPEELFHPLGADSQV
As to the kind of experiment: Indirect measurement of GLUT1 activity by quantification of intracellular ATP levels (glucose induced ATP increase). Format: cell-based. On the set-up: endogenous in cells; host or cells: DLD1 or CHO-K1. Particulars: DLD1 cells; 0.1 mM glucose, 1 μM Rotenone, 15 min; CellTiter-Glo ATP readout; IC50 values standardized to cytochalasin B IC50 values; read-out: IC50 regarding glucose induced ATP increase (GLUT1 inhibition). Put shortly: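 Intracellular ATP was measured by CellTiter-Glo luminescence as an indirect readout of transport: glucose-driven for GLUT1, fructose-driven for GLUT2. DLD1 or CHO-K1 cells were used alongside an oxidative phosphorylation inhibitor. Beforehand, cells were held overnight in glucose-free 1% FCS medium to deplete ATP.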
As to `Cc1c(NC(=O)c2cc(C(N)=O)nc3cc(F)ccc23)c(C(F)(F)F)nn1Cc1ccc(C#N)nn1` [Example 427, N^4-{1-[(6-cyanopyridazin-3-yl)methyl]-5-methyl-3-(trifluoromethyl)-1H-pyrazol-4-yl}-7-fluoroquinoline-2,4-dicarboxamide], the IC50 stood at 78.3 nM.

The same experiment, now with this note: read-out: IC50 regarding glucose induced ATP increase (GLUT1 inhibition).
Take `Cc1nn(Cc2ccc(C#N)cc2)c(C)c1NC(=O)c1cc(C(=O)NCCN2CCOCC2)nc2cc(F)ccc12` [Example 1402]: the half-maximal inhibitory concentration (IC50) was determined as 238 nM.
Turning to `COc1cc(C(=O)Nc2c(C)nn(Cc3ccccc3OC(F)(F)F)c2C)c2ccccc2n1` [Example 1289], the IC50 stood at 6250 nM.
On to `Cc1cc(Cn2nc(C)c(NC(=O)c3cc(C(N)=O)nc4ccccc34)c2C)no1` [Example 1503], for which the half-inhibitory concentration (IC50) is 93.2 nM.
Same read-out and setting: in the case of `Cc1nn(Cc2ccc(C(=O)NCCC(C)(C)O)cc2)c(C)c1NC(=O)c1cc(C(F)(F)F)nc2ccc(Br)cc12` [Example 1204] it was 436 nM; in that of `Cc1ccc2nc(C)cc(C(=O)Nc3c(C)nn(Cc4cccnc4)c3C)c2c1` [Example 208, N-[3,5-dimethyl-1-(pyridin-3-ylmethyl)-1H-pyrazol-4-yl]-2,6-dimethylquinoline-4-carboxamide], 741 nM.
On the same count and under the same terms, the value for `Cc1nn(Cc2ccc(CC#N)cc2)c(C)c1NC(=O)c1cc(C(N)=O)nc2cc(F)ccc12` [Example 1613] was 0.7 nM; that for `Cc1c(NC(=O)c2cc(C(N)=O)nc3cc(F)ccc23)c(C(F)(F)F)nn1Cc1nc2ccccc2o1` [Example 1678] was 57.7 nM; that for `Cc1c(NC(=O)c2cc(C(N)=O)nc3ccc(Br)cc23)c(C(F)(F)F)nn1Cc1ccc(CC#N)cc1` [Example 1595] was 1.6 nM.
The same measure, in the same setting: in the case of `Cc1ccc2nc(C)cc(C(=O)Nc3c(C)nn(Cc4ccccc4OC(F)(F)F)c3C)c2c1` [Example 1287] it was 6250 nM; in that of `Cc1c(NC(=O)c2cc(C(N)=O)nc3cccc(F)c23)c(C(F)(F)F)nn1Cc1ncccc1C#N` [Example 1395], 12.6 nM; in that of `Cc1c(NC(=O)c2cc(C(N)=O)nc3cccc(F)c23)c(C(F)(F)F)nn1Cc1ncc(C#N)cn1` [Example 424, N^4-{1-[(5-cyanopyrimidin-2-yl)methyl]-5-methyl-3-(trifluoromethyl)-1H-pyrazol-4-yl}-5-fluoroquinoline-2,4-dicarboxamide], 6.7 nM.
As to `COc1cc(C(=O)Nc2c(C)nn(Cc3cn4ccccc4n3)c2C)c2ccccc2n1` [Example 1527], the concentration for half-maximal inhibition (IC50) was found to be 228 nM.
Same read-out and setting: in the case of `Cc1ccccc1Cn1nc(C)c(NC(=O)c2cc(C(F)(F)F)nc3c(Cl)cc(Cl)cc23)c1C` [Example 89, 6,8-dichloro-N-[3,5-dimethyl-1-(2-methylbenzyl)-1H-pyrazol-4-yl]-2-(trifluoromethyl)quinoline-4-carboxamide] it was 281 nM.
Still for that read-out and setting: in the case of `Cc1cc(Cn2nc(C(F)(F)F)c(NC(=O)c3cc(C(N)=O)nc4ccccc34)c2C)on1` [Example 1543] it was 112 nM; in that of `CCNC(=O)c1ccc(Cn2nc(C)c(NC(=O)c3cc(C(F)(F)F)nc4ccc(Br)cc34)c2C)cc1` [Example 1028], 3 nM; in that of `Cc1nn(Cc2ccc(C#N)cc2)c(C)c1NC(=O)c1cc(Br)nc2ccccc12` [Example 380, 2-bromo-N-[1-(4-cyanobenzyl)-3,5-dimethyl-1H-pyrazol-4-yl]quinoline-4-carboxamide], 45.9 nM.
Same read-out and setting: in the case of `Cc1nn(Cc2ccc(C(=O)NCc3cccs3)cc2)c(C)c1NC(=O)c1cc(C(F)(F)F)nc2ccc(Br)cc12` [Example 1110] it was 55.4 nM.
As for `Cc1nn(Cc2ccc(C(=O)NCCn3cccn3)cc2)c(C)c1NC(=O)c1cc(C(F)(F)F)nc2ccc(Br)cc12` [Example 1106], the half-inhibitory concentration (IC50) is 49.6 nM.
Still for that read-out and setting: the value for `Cc1c(NC(=O)c2cc(C(N)=O)nc3cc(F)ccc23)c(C(F)(F)F)nn1Cc1ccc(F)cc1C#N` [Example 1658] was 3.2 nM; that for `Cc1c(NC(=O)c2cc(C(N)=O)nc3cccc(F)c23)c(C(F)(F)F)nn1Cc1ccc(F)c(F)c1` [Example 1443] was 4 nM.
On the same count and under the same terms, the value for `COc1cc(C(=O)Nc2c(C)nn(Cc3ccccc3C)c2C)c2ccccc2n1` [Example 51, N-[3,5-dimethyl-1-(2-methylbenzyl)-1H-pyrazol-4-yl]-2-methoxyquinoline-4-carboxamide] was 50 nM; that for `Cc1nn(Cc2ccc(F)cc2)c(C)c1NC(=O)c1cc(C(F)(F)F)nc2ccc([N+](=O)[O-])cc12` [Example 1088] was 34.9 nM; that for `Cc1nn(Cc2ncccc2C#N)c(C)c1NC(=O)c1cc(C(N)=O)nc2cc(F)ccc12` [Example 1409] was 11.1 nM.
Still for that read-out and setting: in the case of `CNC(=O)c1ccc(Cn2nc(C)c(NC(=O)c3cc(C(F)(F)F)nc4ccc(Br)cc34)c2C)cc1` [Example 135, 6-bromo-N-{3,5-dimethyl-1-[4-(methylcarbamoyl)benzyl]-1H-pyrazol-4-yl}-2-(trifluoromethyl)quinoline-4-carboxamide] it was 8.1 nM.
Regarding `Cc1nn(Cc2ccc(C(=O)NCC3CCO3)cn2)c(C)c1NC(=O)c1cc(C(F)(F)F)nc2ccc(Br)cc12` (racemic) [Example 1124], the IC50 stood at 72.6 nM.
On the same count and under the same terms, in the case of `Cc1c(NC(=O)c2cc(C(N)=O)nc3ccccc23)c(C(F)(F)F)nn1Cc1c(F)cc(C#N)cc1F` [Example 396, N^4-[1-(4-cyano-2,6-difluorobenzyl)-5-methyl-3-(trifluoromethyl)-1H-pyrazol-4-yl]quinoline-2,4-dicarboxamide] it was 15.9 nM; in that of `Cc1nn(Cc2ccc(C#N)cc2F)c(C)c1NC(=O)c1cc(C(N)=O)nc2cc(F)c(Cl)cc12` [Example 296, 6-chloro-N^4-[1-(4-cyano-2-fluorobenzyl)-3,5-dimethyl-1H-pyrazol-4-yl]-7-fluoroquinoline-2,4-dicarboxamide], 0.6 nM; in that of `Cc1nn(Cc2ccc(F)cc2)c(C)c1NC(=O)c1cc(C(F)(F)F)nc2cc(F)ccc12` [Example 29, 7-fluoro-N-[1-(4-fluorobenzyl)-3,5-dimethyl-1H-pyrazol-4-yl]-2-(trifluoromethyl)quinoline-4-carboxamide], 19 nM.
Still for that read-out and setting: in the case of `Cc1c(NC(=O)c2cc(C(N)=O)nc3ccccc23)c(C(F)(F)F)nn1Cc1ccc(CC(F)(F)F)cc1` [Example 1717] it was 2.5 nM.
The same measure, in the same setting: in the case of `Cc1nn(CC2CCN(S(=O)(=O)CCCC#N)CC2)c(C)c1NC(=O)c1cc(C(N)=O)nc2ccccc12` [Example 1512] it was 105 nM; in that of `Cc1nn(Cc2ccc(C(=O)N(C)C)cc2)c(C)c1NC(=O)c1cc(C(N)=O)nc2cc(F)ccc12` [Example 1426], 80 nM.
In the case of `CC(=O)c1cccc(Cn2nc(C)c(NC(=O)c3cc(C(N)=O)nc4cc(F)c(Cl)cc34)c2C)c1` [Example 1623], the IC50 turned out to be 0.8 nM.
Regarding `Cc1ccc2nc(C)cc(C(=O)Nc3c(C)nn(Cc4ccccc4C)c3C)c2c1` [Example 111, N-[3,5-dimethyl-1-(2-methylbenzyl)-1H-pyrazol-4-yl]-2,6-dimethylquinoline-4-carboxamide], the IC50 is 708 nM.
On the same count and under the same terms, in the case of `COc1cc(Cn2nc(C(F)(F)F)c(NC(=O)c3cc(C(N)=O)nc4cc(F)c(Cl)cc34)c2C)ccc1C#N` [Example 1666] it was 0.8 nM.
